# Data reported in PMC2580052 (Proteins, 2008).
# Target: T1, geranylgeranyl diphosphate synthase (GGPPS) (Saccharomyces cerevisiae, UniProt Q12051)
# T1 sequence (Q12051 1-335): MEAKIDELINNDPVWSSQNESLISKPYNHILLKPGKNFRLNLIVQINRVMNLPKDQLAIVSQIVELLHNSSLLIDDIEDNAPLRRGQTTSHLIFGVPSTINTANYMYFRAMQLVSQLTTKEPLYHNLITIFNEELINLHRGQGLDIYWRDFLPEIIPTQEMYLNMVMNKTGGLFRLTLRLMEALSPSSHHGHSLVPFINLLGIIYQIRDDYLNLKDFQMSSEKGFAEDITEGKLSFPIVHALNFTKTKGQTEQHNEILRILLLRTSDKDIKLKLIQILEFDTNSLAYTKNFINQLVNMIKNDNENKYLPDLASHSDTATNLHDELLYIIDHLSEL
# Assay: X-ray crystal structure
# Format: binding
smiles,measurement,value
"CN(CCCCc1ccccc1)CCC(O)(P(=O)(O)O)P(=O)(O)O [compound 5, N-[methyl(4-phenylbutyl)]-3-aminopropyl-1-hydroxy-1,1-bisphosphonate]","X-ray crystal structure (2.08 Å, soaked crystals)",We thus crystallized and determined the x-ray crystallographic structure of BPH-210 bound to GGPPS.
